Experimental data as given in patent publication US4657897A, “N^6 -substituted adenosines for treating pain” (Warner-Lambert Company, priority 1985, dated 1987).

Legend:
adenosine A1 receptor = target: T1, adenosine A1 receptor (Rattus norvegicus, UniProt P25099); assay: Adenosine Receptor Binding--A1 Receptor Affinity (RBA1), [3H]-CHA binding, rat whole brain membranes; design: species or system rat (male Long Evans); details: 1.0 nM [3H]-CHA, 25° C., 1 h
T1 construct: Whole brain minus cerebellum and brainstem from male Long Evans rats; from tissue; host or cells: rat whole brain minus cerebellum and brainstem (male Long Evans), membranes
T1 sequence (P25099 1-326): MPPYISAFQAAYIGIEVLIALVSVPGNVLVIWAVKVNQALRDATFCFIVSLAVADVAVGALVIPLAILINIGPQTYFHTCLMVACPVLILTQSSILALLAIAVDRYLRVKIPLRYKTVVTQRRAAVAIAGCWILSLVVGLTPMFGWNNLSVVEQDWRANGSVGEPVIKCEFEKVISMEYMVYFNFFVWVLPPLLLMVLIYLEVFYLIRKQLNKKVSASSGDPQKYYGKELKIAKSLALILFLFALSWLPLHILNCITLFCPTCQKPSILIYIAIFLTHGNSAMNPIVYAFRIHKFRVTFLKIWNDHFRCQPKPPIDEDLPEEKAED
Description: Adenosine Receptor Binding--A1 Receptor Affinity (RBA1)
Whole brain minus cerebellum and brainstem from male Long Evans rats (150-200 g) was homogenized in 30 volumes of ice-cold 0.05M Tris-HCl buffer pH 7.7 using a Brinkman Polytron PT-10, (setting number 6 for 20 seconds) and centrifuged for ten minutes at 20,000×g (Sorvall RC-2), 4° C. The supernatant was discarded, and the pellet was resuspended and centrifuged as before. The pellet was resuspended in 20 ml Tris-HCl buffer containing two International Units/ml of adenosine deaminase (Sigma type III from calf intestinal mucosa), incubated at 37° C. for 30 minutes, then subsequently at 0° C. for ten minutes. The homogenate was again centrifuged, and the final pellet was resuspended in ice-cold 0.05M Tris-HCl buffer pH 7.7 to a concentration of 20 mg/ml original wet tissue weight and used immediately.
Tissue homogenate (10 mg/ml) was incubated in 0.05M Tris-HCl buffer pH 7.7 containing 1.0 nM [^3 H]-N^6 -cyclohexyladenosine[^3 H]-CHA) with or without test agents in triplicate for one hour at 25° C. Incubation volume was 2 ml. Unbound [^3 H]-CHA was separated by rapid filtration under reduced pressure through Whatman glass fiber (GF/B) filters. The filters were rinsed three times with 5 ml of ice cold 0.05M Tris-HCl buffer pH 7.7. The radio-labeled ligand retained on the filter was measured by liquid scintillation spectrophotometry after shaking the filters for one hour or longer on a mechanical shaker in 10 ml of Beckman Ready-Solv HP scintillation cocktail.
Nonspecific binding was defined as the binding which occurred in the presence of 1 mM theophylline. The concentration of test agent which inhibited 50% of the specific binding (IC50) was determined by nonlinear computer curve fit. The Scatchard plot was calculated by linear regression of the line obtained by plotting the amount of radioligand bound (pmoles/gram of tissue) [formula] Since the amount of radioligand bound was a small fraction of the total amount added, free radioligand was defined as the concentration (nM) of radioligand added to the incubation mixture. The Hill coefficient was calculated by linear regression of the line obtained by plotting the log of the bound radioligand vs the log of the [formula] The maximal number of binding sites (Bmax) was calculated from the Scatchard plot.

[1] = Mouse Activity and Screen Test (MAST), screen test failure (ST); type: in vivo, mouse (Swiss-Webster, male); details: for Inhibition of screen test failure: percent of mice falling off the screen
Description: Treatments are administered intraperitoneally one hour prior to testing. […] Compounds are dissolved or suspended in 0.2% Methocel. Control animals are injected with Methocel.
The compounds are identified in the Examples.

IC50 (adenosine A1 receptor): 139 nM
SMILES: OC[C@H]1O[C@@H](n2cnc3c(NCCC(c4ccccc4)c4ccccc4)ncnc32)[C@H](O)[C@@H]1O [Example 2, N^6-(3,3-Diphenylpropyl)adenosine]
Inhibition of screen test failure ([1]; 10 mg/kg intraperitoneal): 0%
Inhibition of screen test failure ([1]; 30 mg/kg intraperitoneal): 0%
Inhibition of screen test failure ([1]; 100 mg/kg intraperitoneal): 0%
minimal effective dose ([1]; Mus musculus, ip, lowest dose at which an A rating is achieved, screen test, intraperitoneal, 1 h prior to testing, read-out: MAST ST LAD): > 100 mg/kg
